Data from patent US20260216133A1, “AEROSOL COMPRISING 5-METHOXY-N,N-DIMETHYLTRYPTAMINE” (GH Research Ireland Limited, priority 2020, published 2026).
Several values for one entry are separate records, joined by “and”; a condition that tells them apart may be missing. Equal values may be shown once.

Assays:
[1] = Degradation products of 5-MeO-DMT aerosol by HPLC after SPE extraction; conditions: 18 mg capsule, 210° C. aerosolization, Replicate 1, Extract 1; including the additional amount of Impurity 1
[2] = Aerosolization of 5-MeO-DMT from dosing capsules (Volcano Medic), aerosolized dose by weighing; conditions: triplicate capsules; for Aerosolized dose: 210° C., 12 l/min, 15 seconds
[3] = Aerosol particle formation rate (aerosolized dose/aerosolization time); assay type: physicochemical; conditions: aerosolization time 15 seconds
Protocol: The aerosol particle formation rate can be calculated as follows: Aerosol particle formation rate=Aerosolized dose/Aerosolization time. For the aerosolized dose data and the aerosolization time of 15 seconds from Example 2, the following aerosol particle formation rate was determined: […]

[4] = Aerosol 5-MeO-DMT mass density (aerosolized dose/aerosol volume); assay type: physicochemical; conditions: aerosol volume about 3 liters
Protocol: The aerosol 5-MeO-DMT mass density can be calculated as follows: Aerosol 5-MeO-DMT mass density =Aerosolized dose/Aerosol volume. For the aerosolized dose data and the aerosol volume of about 3 liters from Example 2, the following aerosol 5-MeO-DMT mass density was determined: […]

[5] = Particle size distribution of 5-MeO-DMT aerosol, Next Generation Impactor (NGI); assay type: physicochemical
Protocol: The particle size distribution of 5-MeO-DMT aerosol particles as generated according to the compositions and methods of the present invention are determined according to United States Pharmacopeia (USP) methods using the Next Generation Impactor (NGI) (United States Pharmacopeia (USP)<601> Apparatus 6) as shown in FIG. 2.
This device fractionates the bolus aerosol delivered into a discrete series of size ranges on the basis of particle or droplet inertia and provides a measure of the aerodynamic diameter of the aerosol droplets produced. The droplet size range captured by each stage in the NGI can be dependent on the measured airflow used. For the present analysis, experiments are carried out using an airflow of 30 liters/minute (Experiments 1 and 3) and of 15 liters/minute (Experiments 2 and 4).
Based on a log-normal distribution of particle sizes, the aerodynamic size distribution is characterized by the mass median aerodynamic diameter (MMAD) and geometric standard deviation (GSD). Moreover, the fine particle fraction (FPF) is determined as the weight percentage of droplets having an aerodynamic diameter of less than or equal to 5 μm, relative to the total of droplets on the impactor.
A first experiment is carried out using a Volcano Medic Vaporization System as described in Example 1 with dosing capsules having a nominal drug load of 6 mg 5-MeO-DMT free base/capsule. The aerosol recovered in the balloon is measured using the NGI operated using a flow rate of 30 liters/min.
A second experiment is carried also out using a Volcano Medic Vaporization System as described in Example 1 with dosing capsules having a nominal drug load of 6 mg 5-MeO-DMT free base/capsule. The aerosol recovered in the balloon is measured using the NGI operated using a flow rate of 15 liters/min.
In this experiment, NGI cups were coated with glycerol to prevent possible droplet re-entrainment. In addition, approximately 8 drops of 30% glycerol in water were added to each filter paper located underneath the corresponding NGI Stage Jets.

[6] = Experiment 1: 6 mg/capsule, NGI 30 liters/min, mean of 3 runs
[7] = Experiment 1: 6 mg/capsule, NGI 30 liters/min, single runs
[8] = Experiment 2: 6 mg/capsule, NGI 15 liters/min, Mean (Runs 1-3)
[9] = Experiment 2: 6 mg/capsule, NGI 15 liters/min, Mean (Runs 2, 3)
[10] = Experiment 3: 18 mg/capsule, NGI 30 liters/min, mean of 3 runs
[11] = Experiment 3: 18 mg/capsule, NGI 30 liters/min, single runs
[12] = Experiment 4: 18 mg/capsule, NGI 15 liters/min, glycerol-coated cups, single runs
[13] = Experiment 4: 18 mg/capsule, NGI 15 liters/min, mean of 3 runs

SMILES: COc1ccc2[nH]cc(CCN(C)C)c2c1 [5-MeO-DMT, 5-methoxy-N,N-dimethyltryptamine]
- total percentage of 5-MeO-DMT degradation products in the aerosol [1]: 0.19%
- Aerosolized dose, % of loaded dose ([2]; target dosage 2 mg): 100.5% and 99.5%
- Aerosolized dose ([2]; target dosage 2 mg): 1.9 mg
- Aerosolized dose, % of loaded dose ([2]; target dosage 18 mg): 96.3% and 96.5% and 95.9%
- Aerosolized dose ([2]; target dosage 18 mg): 16.3 mg and 16.2 mg
- Aerosol particle formation rate ([3]; target dosage 2 mg): 0.12 mg/s
- Aerosol particle formation rate ([3]; target dosage 18 mg): 1.09 mg/s and 1.08 mg/s
- Aerosol 5-MeO-DMT mass density ([4]; target dosage 2 mg): 0.62 mg/L
- Aerosol 5-MeO-DMT mass density ([4]; target dosage 18 mg): 5.45 mg/L and 5.38 mg/L and 5.43 mg/L
- FPF [5, 6]: 97.95%
- GSD [5, 6]: 3.49
- MMAD [5, 6]: 0.40 μm
- GSD [5, 7]: 4.70 and 3.05 and 2.71
- MMAD [5, 7]: 0.33 μm and 0.46 μm and 0.42 μm
- FPF ([5]; Experiment 1: 6 mg/capsule, NGI 30 liters/min, single runs, droplets <= 5 μm): 96.19% and 98.35% and 99.31%
- FPF [5, 8]: 94.85%
- GSD [5, 8]: 4.63
- MMAD [5, 8]: 0.57 μm
- FPF [5, 9]: 94.67%
- GSD [5, 9]: 3.20
- MMAD [5, 9]: 0.77 μm
- FPF ([5]; Experiment 2: 6 mg/capsule, NGI 15 liters/min, glycerol-coated cups, single runs, Run 1 may not be reliable): 95.22% and 93.54% and 95.79%
- FPF [5, 10]: 94.64%
- GSD [5, 10]: 2.65
- MMAD [5, 10]: 1.05 μm
- FPF [5, 11]: 93.13% and 94.08% and 96.72%
- GSD [5, 11]: 2.98 and 2.52 and 2.44
- MMAD [5, 11]: 0.98 μm and 1.19 μm and 0.97 μm
- FPF [5, 12]: 93.23% and 92.66% and 91.40%
- GSD [5, 12]: 2.66 and 2.77 and 2.10
- MMAD [5, 12]: 1.16 μm and 1.14 μm and 1.82 μm
- FPF [5, 13]: 92.43%
- GSD [5, 13]: 2.51
- MMAD [5, 13]: 1.37 μm
